Experimental data taken from patent US10111432B2, “Picolinamide N-oxide compounds with fungicidal activity” (Dow AgroSciences LLC, priority 2016, dated 2018).
Where two headings read alike, the source gives them in different places.

Key:
Zymoseptoria tritici = assay: Fungicidal activity: leaf blotch of wheat (SEPTTR), disease control on wheat seedlings; type: in vivo; conditions: low volume application, 121.5 g/H
Experimental: Technical grades of materials were dissolved in acetone, which were then mixed with nine volumes of water (H2O) containing 110 ppm Triton X-100. The fungicide solutions were applied onto wheat seedlings using an automated booth sprayer to run-off. All sprayed plants were allowed to air dry prior to further handling. All fungicides were evaluated using the aforementioned method for their activity vs. all target diseases, unless stated otherwise. Wheat leaf blotch and brown rust activity were also evaluated using track spray applications, in which case the fungicides were formulated as EC formulations, containing 0.1% Trycol 5941 in the spray solutions. Wheat plants (variety Yuma) were grown from seed in a greenhouse in 50% mineral soil/50% soil-less Metro mix until the first leaf was fully emerged, with 7-10 seedlings per pot. These plants were inoculated with an aqueous spore suspension of Zymoseptoria tritici either prior to or after fungicide treatments. After inoculation the plants were kept in 100% relative humidity (one day in a dark dew chamber followed by two to three days in a lighted dew chamber at 20° C.) to permit spores to germinate and infect the leaf. The plants were then transferred to a greenhouse set at 20° C. for disease to develop. When disease symptoms were fully expressed on the 1st leaves of untreated plants, infection levels were assessed on a scale of 0 to 100 percent disease severity. Percent disease control was calculated using the ratio of disease severity on treated plants relative to untreated plants.

Puccinia triticina = assay: Fungicidal activity: wheat brown rust (PUCCRT), disease control on wheat seedlings; type: in vivo; conditions: 24 h, low volume application, 121.5 g/H, 1 day protectant, read-out: PUCCRT disease control, 1DP, LV activity at 121.5 g/H
Experimental: Technical grades of materials were dissolved in acetone, which were then mixed with nine volumes of water (H2O) containing 110 ppm Triton X-100. The fungicide solutions were applied onto wheat seedlings using an automated booth sprayer to run-off. All sprayed plants were allowed to air dry prior to further handling. All fungicides were evaluated using the aforementioned method for their activity vs. all target diseases, unless stated otherwise. Wheat leaf blotch and brown rust activity were also evaluated using track spray applications, in which case the fungicides were formulated as EC formulations, containing 0.1% Trycol 5941 in the spray solutions. Wheat plants (variety Yuma) were grown from seed in a greenhouse in 50% mineral soil/50% soil-less Metro mix until the first leaf was fully emerged, with 7-10 seedlings per pot. These plants were inoculated with an aqueous spore suspension of Puccinia triticina either prior to or after fungicide treatments. After inoculation the plants were kept in a dark dew room at 22° C. with 100% relative humidity overnight to permit spores to germinate and infect the leaf. The plants were then transferred to a greenhouse set at 24° C. for disease to develop. Fungicide formulation, application and disease assessment followed the procedures as described in the Example A. Results of the evaluations are shown below in Table 4.

**Q.** How did the pest or weed control at 121.5 g/ha (Zymoseptoria tritici; 24 h, 1 day protectant, read-out: SEPTTR disease control, 1DP, LV activity at 121.5 g/H) turn out when `COc1cc[n+]([O-])c(C(=O)N[C@@H](C)C(=O)O[C@@H](C)C(c2ccc(C)cc2)c2ccc(C)cc2)c1O` [Compound 39] was run?
**A.** Its pest or weed control at 121.5 g/ha is greater than 80%.

**Q.** And the pest or weed control at 121.5 g/ha (Zymoseptoria tritici; 72 h, 3 day curative, read-out: SEPTTR disease control, 3DC, LV activity at 121.5 g/H)?
**A.** The pest or weed control at 121.5 g/ha was no more than 80%.

**Q.** And the pest or weed control at 121.5 g/ha (Puccinia triticina)?
**A.** Its pest or weed control at 121.5 g/ha is no more than 80%.
